This series is described as follows: RP, Waters ACQUITY UPLC BEH C18, 38 °C, 0.24 mL/min; A: water + 0.1% formic acid, pH 3; B: acetonitrile + 0.1% formic acid, pH 3; gradient (min/%B) 0/0 0.25/0 0.4/9 0.8/17 1.9/100 2.1/100 2.11/0 3/0. The settings on record: stereoisomer not certain.

Structures can show the parent of a compound that is named as a salt.

These results are taken from the RepoRT retention time repository (doi:10.1093/pcp/pcn183).

`O=C(O)CCl` [Chloroacetic acid]: the LC retention time was found to be 0.36 min.

On to `CCC[C@H](N)C(=O)O` [L-Norvaline], for which the LC retention time was 0.25 min.

`C[N+](C)(C)CCOP(=O)(O)OP(=O)([O-])OCC1OC(n2ccc(N)nc2=O)C(O)C1O` (stereo not drawn): the LC retention time turned out to be 0.2 min.

`N[C@H](CC(=O)O)Cc1ccccc1` [L-beta-Homophenylalanine hydrochloride]: the LC retention time came out at 1.16 min.

In the case of `OCC1OC(Oc2cc3c(O)cc(O)cc3[o+]c2-c2ccc(O)cc2)C(O)C(O)C1O` (stereo not drawn) [Callistephin Chloride], the LC retention time is 1.25 min.

On to `C[N+](C)(C)CCO` [Choline chloride], for which the LC retention time came to 0.17 min.

`O=C(O)CCCCCCCCC(=O)O` [Sebacic acid]: the LC retention time amounted to 1.58 min.

As for `O=c1cc(-c2ccc(O)cc2)oc2c(C3OC(CO)C(O)C(O)C3O)c(O)cc(O)c12` (stereo not drawn) [Vitexin], the LC retention time came to 1.39 min.

Take `CC(CO)CCNc1ncnc2nc[nH]c12` (racemic) [DL-Dihydrozeatin]: the LC retention time was 1.11 min.

Take `CC(=O)Oc1ccc2c(C)cc(=O)oc2c1` [4-methylumbelliferyl acetate]: the LC retention time was found to be 1.69 min.

Turning to `O=C(O)c1cc(O)ccc1O` [2,5-dihydroxy benzoic acid], the LC retention time was determined as 1.25 min.

Turning to `COc1cc(CNC(=O)CCCCC=CC(C)C)ccc1O` [Capsaicin], the LC retention time turned out to be 1.93 min.

Consider `O=c1c(O[C@@H]2O[C@H](CO)[C@@H](O)[C@H](O)[C@H]2O)c(-c2ccc(O[C@@H]3O[C@H](CO)[C@@H](O)[C@H](O)[C@H]3O)c(O)c2)oc2cc(O)cc(O)c12` [Quercetin-3,4'-O-di-beta-glucopyranoside], for which the LC retention time was 1.32 min.

For the compound `Cc1ncc(CO)c(CO)c1O` [Pyridoxine], the LC retention time worked out at 0.53 min.

Consider `OCC1OC(OCC2OC(O)C(O)C(O)C2O)C(O)C(O)C1O` (stereo not drawn), for which the LC retention time is 0.19 min.

Take `C[N+](C)(C)CC=O` [Betaine aldehyde chloride]: the LC retention time is 0.16 min.

`N[C@H](CO)Cc1cnc[nH]1` [L-Histidinol dihydrochloride]: the LC retention time is 0.14 min.

`NCCCC(=O)O` [gamma-Amino-n-butyric acid]: the LC retention time is 0.17 min.

With `COc1cc(-c2[o+]c3cc(O)cc(O)c3cc2OC2OC(CO)C(O)C(O)C2O)cc(O)c1O` (stereo not drawn) [Petunidin-3-O-beta-glucopyranoside], the LC retention time came to 1.22 min.

On to `CCCCCCCCCC(=O)OCC(O)COP(=O)([O-])OCC[N+](C)(C)C` (stereo not drawn) [Phosphocholine,1-Decanoyl-2-Hydroxy-sn-Glycero-3-], for which the LC retention time is 1.65 min.

In the case of `NC1(C(=O)O)CC1` [1-Aminocyclopropane-1-carboxylic acid], the LC retention time was 0.18 min.

Turning to `CS(=O)(=O)CCC(N)C(=O)O` [L-Methionine sulfone], the LC retention time was determined as 0.18 min.

Consider `CSCC[C@H](N)CC(=O)O` [L-beta-homomethionine-HCl], for which the LC retention time is 0.66 min.

Consider `N=c1nc(N2CCCCC2)cc(N)n1O` [Minoxidil], for which the LC retention time was found to be 1.32 min.

As to `CC(N)(CO)C(=O)O` (racemic) [alpha-Methyl-DL-serine], the LC retention time turned out to be 0.17 min.

Regarding `O=C(O)CCCCCCC(=O)O` [Suberic acid], the LC retention time was 1.4 min.

For the compound `NC(=O)c1ncn(C2OC(COP(=O)(O)O)C(O)C2O)c1N` (stereo not drawn), the LC retention time is 0.32 min.

As for `O=C(O)CCc1ccc(O)cc1` [3-(4-Hydroxyphenyl)-propionic acid], the LC retention time was 1.38 min.

In the case of `O=C1CC(c2ccc(O)c(O)c2)Oc2cc(O)cc(O)c21` (stereo not drawn) [Eriodictyol], the LC retention time was 1.59 min.

On to `CCC(C(=O)O)C(=O)O` [Ethylmalonic acid], for which the LC retention time is 1.12 min.

Consider `C=CCC(=NOS(=O)(=O)O)SC1OC(CO)C(O)C(O)C1O` (stereo not drawn) [sinigrin], for which the LC retention time came out at 0.38 min.

Consider `CC(=O)C(=O)O` [Sodium Pyruvate], for which the LC retention time stood at 0.22 min.

As for `CC(=O)N[C@@H]1C(O)O[C@H](CO)[C@@H](O)[C@@H]1O` (stereo partly drawn) [N-acetyl-D-mannosamine], the LC retention time turned out to be 0.18 min.

Take `O=Cc1c[nH]c2ccccc12` [Indole-3-carboxyaldehyde]: the LC retention time turned out to be 1.51 min.

Consider `N#Cc1cccnc1` [3-cyanopyridine], for which the LC retention time stood at 1.18 min.

Regarding `O=S(=O)(O)Oc1c[nH]c2ccccc12` [3-Indoxylsulfate potassium salt], the LC retention time is 1.24 min.

On to `NCCC[C@H](N)C(=O)O` [L-Ornithine monohydrochloride], for which the LC retention time amounted to 0.14 min.

On to `COc1cc(C=CCO)cc(OC)c1O` [Sinapyl alcohol], for which the LC retention time turned out to be 2.13 min.

As to `COc1cc(C=CC(=O)O)cc(OC)c1O` [Sinapic acid], the LC retention time amounted to 1.44 min.

Turning to `O=C(O)C[C@@H]1CCCN1` [L-beta-homoproline-HCl], the LC retention time is 0.25 min.

For the compound `COc1ccccc1C(=O)O` [o-Anisic Acid], the LC retention time is 1.47 min.

Turning to `CC(=O)NCCCNCCCCNCCCN` [N1-Acetylspermine Trihydrochloride], the LC retention time came out at 0.14 min.

Regarding `NC(=O)NCCC[C@H](N)C(=O)O` [L-Citrulline], the LC retention time stood at 0.18 min.

For `OCC1OC(OC2C(CO)OC(O)C(O)C2O)C(O)C(O)C1O` [D-(+)- Maltose monohydrate], the LC retention time is 0.17 min.

Take `CC(=O)Nc1ccc(O)cc1` [Acetaminophen]: the LC retention time is 1.15 min.

As for `CCCCCCC(=O)O` [n-heptanoic acid], the LC retention time was 0.29 min.

On to `N=C(N)c1ccccc1` [Benzamidine hydrochloride hydrate], for which the LC retention time came out at 0.78 min.

With `CN1C=CC=CC1=CN=O` [Pyridine-2-aldoxime methochloride], the LC retention time is 0.25 min.

Consider `OC[C@@H](O)[C@H](O)CO` (racemic) [DL-Threitol], for which the LC retention time is 0.17 min.

As for `NCCCC(=O)NC(Cc1cnc[nH]1)C(=O)O` [L-Homocarnosine], the LC retention time came to 0.16 min.

On to `O=CC(O)CO` (racemic) [DL-Glyceraldehyde], for which the LC retention time stood at 0.17 min.

In the case of `O=c1ccn(C2OC(COP(=O)(O)OP(=O)(O)OC3OCC(O)C(O)C3O)C(O)C2O)c(=O)[nH]1` (stereo not drawn) [UDP-xylose], the LC retention time amounted to 0.21 min.

In the case of `COc1cc(-c2[o+]c3cc(O)cc(O)c3cc2O)cc(OC)c1O` [Malvidin Chloride], the LC retention time is 2.15 min.

As to `NCC(O)c1ccc(O)c(O)c1` (single isomer, unassigned; (-)) [(-)-Norepinephrine], the LC retention time was determined as 0.19 min.

For `COc1cc(-c2[o+]c3cc(O)cc(O)c3cc2OC2OCC(O)C(O)C2O)ccc1O` (stereo not drawn) [Peonidin-3-O-alpha-arabinopyranoside], the LC retention time is 1.3 min.

With `O=C(O)C=Cc1ccccc1O` [2-Hydroxycinnamic acid, predominantly trans], the LC retention time is 1.51 min.

Consider `O=C(O)C(O)Cc1ccc(O)cc1` (racemic) [DL-p-Hydroxyphenyllactic acid], for which the LC retention time is 1.18 min.

Take `Cn1c(=O)[nH]c2ncn(C)c2c1=O` [1,7-Dimethylxanthine]: the LC retention time worked out at 1.15 min.
